pIC50: −log10 of the molar value. Values belong to the compound of their own block, whether it stands above or below them.
Test system: 354836-022-R-J1-PDC multicell spheroid viability
Assay: Anticancer human tumor 354836-022-R-J1-PDC patient-derived head and neck squamous cell carcinoma cell line growth inhibition [PI3K]
Details: for pIC50: curve of first compound; for viability, T/C: stronger effect = lower value
Text: Combinatorial screen of targeted agents with the PI3K inhibitors inavolisib, alpelisib, duvelisib, and copanlisib in multi-cell type tumor spheroids
A high-throughput screen of multi-cell type tumor spheroids was designed to identify active combinations of targeted small molecules and PI3K pathway inhibitors. Complex spheroids include a stromal component modeled by human endothelial cells (HUVEC) and fibroblasts modeled by human mesenchymal stem cells (MSCs). The concentration ranges selected for each drug and investigational agent were based upon clinically achievable concentrations if the clinical Cmax of the agent was known.
Compounds. The drugs and investigational agents: inavolisib (NSC800729), alpelisib (NSC765974), duvelisib (NSC772469), copanlisib (NSC816437), ipatasertib (NSC767898), afuresertib (NSC778305), talazoparib (NSC767125), sapanisertib (NSC764658), selumetinib (NSC741078), tovorafenib (DAY101, NSC766906), vemurafenib (NSC761431), ravoxertinib (NSC781343), sotorasib (NSC818433), MRTX1133 (NSC 836407), abemaciclib (NSC 768073), palbociclib (NSC758247), venetoclax (NSC 766270), SY5609 (NSC837396), enzalutamide (NSC755605), and darolutamide (NSC825331), were obtained from the National Cancer Institute (NCI) Developmental Therapeutics Program Chemical Repository. The FDA-approved anticancer drug set is available from the NCI Developmental Therapeutics Program. […] The stock solutions were prepared in dimethyl sulfoxide (DMSO, Sigma-Aldrich, St. Louis, MO, cat. D2650) at 800-fold the tested concentration and stored at -70 degrees C prior to their use. All drugs and investigational agents were tested over a range starting from a high concentration at or near the clinical Cmax and decreasing in half-log increments. If the clinical Cmax for an agent had not been determined, the highest concentration tested was 10 microM.
Cell Culture. All cells were maintained in an incubator at 37 degrees C and 5% CO2 with 95% humidity. The PDC lines were cultured according to standard operating procedures established by the NCI PDMR (https://pdmr.cancer.gov/sops/default.htm). All PDCs were thawed and cultured in Matrigel-coated flasks prepared with a working solution of 1X Ham's F-12 nutrient mix, without supplementation (Invitrogen, Waltham, MA, cat. 11765054), 100 U/mL penicillin-streptomycin (Invitrogen, cat. 15140122), and 2.5% Matrigel (Corning Inc., Corning, NY, cat. 354248) for the first three passages. The 354836-022-R-J1-PDC, 475296-252-R-J1-PDC, and 997726-040-R-J2-PDC lines were cultured in 6A media, which includes advanced DMEM/F-12 (Thermo Fisher Scientific, cat. 12634028), 10 mM HEPES (Thermo Fisher Scientific, cat. 15630080), 1X GlutaMAX supplement (Thermo Fisher Scientific, cat. 35050061), 0.1 mg/mL primocin (InvivoGen, San Diego, CA, cat. ant-pm-2), 10% defined fetal bovine serum, heat inactivated (HyClone Laboratories Inc., Logan, UT, cat. SH30070.03HI), 50% L-WRN conditioned media (ATCC, cat. CRL-3276), 1.25 mM N-Acetyl-L-cysteine (Sigma-Aldrich, cat. A9165), 10 mM nicotinamide (Sigma-Aldrich, cat. N0636), 1X B-27 supplement (Thermo Fisher Scientific, cat. 17504044), 1X N-2 supplement (Thermo Fisher Scientific, cat. 17502048), and 10 microM Y-27632 dihydrochloride (Tocris Bioscience, Bristol, United Kingdom, cat. 1254). The 624824-186-R-J2-PDC line was cultured in 6C/Colon 1B media, which includes all 6A media components plus 50 ng/mL human EGF recombinant protein (Thermo Fisher Scientific, cat. PHG0311). […]
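Also: spheroids exposed to agents for seven days before the viability read.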

pIC50 (second compound 0.0316 µM): < 5.52 | pIC50 (second compound 0.1 µM): < 5.52 | pIC50 (second compound 0.316 µM): < 5.52 | pIC50 (second compound 1 µM): < 5.52 | pIC50 (second compound 3.16 µM): 5.96 | pIC50 (second compound 10 µM): > 8.02
Structure (SMILES): Cn1cnc2c(F)c(Nc3ccc(Br)cc3Cl)c(C(=O)NOCCO)cc21 + Cc1nc(NC(=O)N2CCCC2C(N)=O)sc1-c1ccnc(C(C)(C)C(F)(F)F)c1
viability, T/C (second compound 0.0316 µM, first compound 0.00949 µM): 85.6% | viability, T/C (second compound 0.0316 µM, first compound 0.03 µM): 82.2% | viability, T/C (second compound 0.0316 µM, first compound 0.0949 µM): 90.7% | viability, T/C (second compound 0.0316 µM, first compound 0.3 µM): 64.6% | viability, T/C (second compound 0.0316 µM, first compound 0.949 µM): 73.7% | viability, T/C (second compound 0.0316 µM, first compound 3 µM): 54.3% | viability, T/C (second compound 0.1 µM, first compound 0.00949 µM): 96.5% | viability, T/C (second compound 0.1 µM, first compound 0.03 µM): 83.1% | viability, T/C (second compound 0.1 µM, first compound 0.0949 µM): 82.9% | viability, T/C (second compound 0.1 µM, first compound 0.3 µM): 76.3% | viability, T/C (second compound 0.1 µM, first compound 0.949 µM): 70.4% | viability, T/C (second compound 0.1 µM, first compound 3 µM): 54.4% | viability, T/C (second compound 0.316 µM, first compound 0.00949 µM): 79.3% | viability, T/C (second compound 0.316 µM, first compound 0.03 µM): 86.2% | viability, T/C (second compound 0.316 µM, first compound 0.0949 µM): 80.5% | viability, T/C (second compound 0.316 µM, first compound 0.3 µM): 78.2% | viability, T/C (second compound 0.316 µM, first compound 0.949 µM): 75.6% | viability, T/C (second compound 0.316 µM, first compound 3 µM): 55.7% | viability, T/C (second compound 1 µM, first compound 0.00949 µM): 71.7% | viability, T/C (second compound 1 µM, first compound 0.03 µM): 75.2% | viability, T/C (second compound 1 µM, first compound 0.0949 µM): 78% | viability, T/C (second compound 1 µM, first compound 0.3 µM): 58.6% | viability, T/C (second compound 1 µM, first compound 0.949 µM): 63.3% | viability, T/C (second compound 1 µM, first compound 3 µM): 52% | viability, T/C (second compound 3.16 µM, first compound 0.00949 µM): 49.1% | viability, T/C (second compound 3.16 µM, first compound 0.03 µM): 58.1% | viability, T/C (second compound 3.16 µM, first compound 0.0949 µM): 55.8% | viability, T/C (second compound 3.16 µM, first compound 0.3 µM): 46% | viability, T/C (second compound 3.16 µM, first compound 0.949 µM): 54.8% | viability, T/C (second compound 3.16 µM, first compound 3 µM): 31.7% | viability, T/C (second compound 10 µM, first compound 0.00949 µM): 33% | viability, T/C (second compound 10 µM, first compound 0.03 µM): 29.7% | viability, T/C (second compound 10 µM, first compound 0.0949 µM): 30% | viability, T/C (second compound 10 µM, first compound 0.3 µM): 30.4% | viability, T/C (second compound 10 µM, first compound 0.949 µM): 25% | viability, T/C (second compound 10 µM, first compound 3 µM): 12.6%

pIC50 (second compound 0.00316 µM): < 5.00 | pIC50 (second compound 0.01 µM): < 5.00 | pIC50 (second compound 0.0316 µM): < 5.00 | pIC50 (second compound 0.1 µM): < 5.00 | pIC50 (second compound 0.316 µM): > 7.50 | pIC50 (second compound 1 µM): > 7.50
Structure (SMILES): C=CC(=O)N1CCN(c2nc(=O)n(-c3c(C)ccnc3C(C)C)c3nc(-c4c(O)cccc4F)c(F)cc23)C(C)C1 (centres undefined) + COc1c(OCCCN2CCOCC2)ccc2c3n(c(=NC(=O)c4cnc(N)nc4)nc12)CCN3
viability, T/C (second compound 0.00316 µM, first compound 0.0316 µM): 96.3% | viability, T/C (second compound 0.00316 µM, first compound 0.1 µM): 106% | viability, T/C (second compound 0.00316 µM, first compound 0.316 µM): 109% | viability, T/C (second compound 0.00316 µM, first compound 1 µM): 108% | viability, T/C (second compound 0.00316 µM, first compound 3.16 µM): 118% | viability, T/C (second compound 0.00316 µM, first compound 10 µM): 116% | viability, T/C (second compound 0.01 µM, first compound 0.0316 µM): 97.7% | viability, T/C (second compound 0.01 µM, first compound 0.1 µM): 99% | viability, T/C (second compound 0.01 µM, first compound 0.316 µM): 98.5% | viability, T/C (second compound 0.01 µM, first compound 1 µM): 102% | viability, T/C (second compound 0.01 µM, first compound 3.16 µM): 105% | viability, T/C (second compound 0.01 µM, first compound 10 µM): 90.4% | viability, T/C (second compound 0.0316 µM, first compound 0.0316 µM): 83.2% | viability, T/C (second compound 0.0316 µM, first compound 0.1 µM): 83.5% | viability, T/C (second compound 0.0316 µM, first compound 0.316 µM): 72% | viability, T/C (second compound 0.0316 µM, first compound 1 µM): 82.6% | viability, T/C (second compound 0.0316 µM, first compound 3.16 µM): 110% | viability, T/C (second compound 0.0316 µM, first compound 10 µM): 95.4% | viability, T/C (second compound 0.1 µM, first compound 0.0316 µM): 61.4% | viability, T/C (second compound 0.1 µM, first compound 0.1 µM): 45.3% | viability, T/C (second compound 0.1 µM, first compound 0.316 µM): 59.2% | viability, T/C (second compound 0.1 µM, first compound 1 µM): 62.8% | viability, T/C (second compound 0.1 µM, first compound 3.16 µM): 61.5% | viability, T/C (second compound 0.1 µM, first compound 10 µM): 55.6% | viability, T/C (second compound 0.316 µM, first compound 0.0316 µM): 14.3% | viability, T/C (second compound 0.316 µM, first compound 0.1 µM): 16.2% | viability, T/C (second compound 0.316 µM, first compound 0.316 µM): 16.2% | viability, T/C (second compound 0.316 µM, first compound 1 µM): 18.4% | viability, T/C (second compound 0.316 µM, first compound 3.16 µM): 25.9% | viability, T/C (second compound 0.316 µM, first compound 10 µM): 13% | viability, T/C (second compound 1 µM, first compound 0.0316 µM): 1.79% | viability, T/C (second compound 1 µM, first compound 0.1 µM): 1.75% | viability, T/C (second compound 1 µM, first compound 0.316 µM): 1.72% | viability, T/C (second compound 1 µM, first compound 1 µM): 2.49% | viability, T/C (second compound 1 µM, first compound 3.16 µM): 1.82% | viability, T/C (second compound 1 µM, first compound 10 µM): 1.3%
